# Experimental data from patent publication US10159659B2, “Predicting response to cancer therapy” (BIONOMICS LIMITED, priority 2014, dated 2018).
# How the values were obtained:
# [1] = Maximum tolerated dose of BNC105P by intravenous infusion in patients; type: in vivo, human; details: intravenous infusion over 10 minutes, days 1 and 8 of 21 day cycle, with 10 mg oral everolimus daily
# Description: Patients in the BNC105P in combination with everolimus study group (the “combination arm”) were administered 10 mg oral everolimus daily. On days 1 and 8 of the 21 day cycle period, the patients were administered 16 mg/m^2 BNC105P, which had been determined to be the maximum tolerated dose, by intravenous infusion over a 10 minute period (FIG. 1). Treatment was continued until disease progressed, intolerable toxicity became apparent, or until consent was withdrawn. A control group of patients were administered with everolimus alone.
# [2] = tested on: tumour endothelial cells (activated) and normal endothelial cells (quiescent); test: Potency against activated versus quiescent endothelial cells; type: cell-based
# tubulin = test: Tubulin polymerisation inhibition; type: biochemical
# [3] = tested on: Metastatic Clear Cell Renal Cell Carcinoma; test: Disruptor-1 trial: BNC105P in combination with everolimus, progression free survival; type: in vivo, human; details: all patients; 10 mg oral everolimus daily, with or without 16 mg/m^2 BNC105P i.v. on days 1 and 8 of 21 day cycle; FIG. 2
# Description: A control group of patients received everolimus alone.
# The medical histories of patients were obtained prior to commencement of the study.
# All patients in the study were followed for disease progression and survival. Prior to commencing treatment, patients enrolled in the study were subject to disease assessment including: CT of chest, abdomen and pelvis; CT of the head or brain MRI; bone scan; echocardiography (ECHO) or multiple gated acquisition scan (MUGA). At every 3 cycles of treatment, CT scans of chest, abdomen and pelvis, and bone scans were performed to determine disease progression.
# Time to disease progression was determined as a measurement from the start of the treatment until the criteria for disease progression is met (or death occurs), taking as reference the smallest measurements recorded since the treatment started. […]
smiles,measurement,setting,value
"COc1cc(C(=O)c2c(C)oc3c(OP(=O)([O-])[O-])c(OC)ccc23)cc(OC)c1OC.[Na+].[Na+] [BNC105P, disodium [6-methoxy-2-methyl-3-(3,4,5-trimethoxybenzoyl)-1-benzofuran-7-yl] phosphate]",maximum tolerated dose,[1],16 mg/m^2
"COc1cc(C(=O)c2c(C)oc3c(O)c(OC)ccc23)cc(OC)c1OC [formula III, 2-methyl-7-hydroxy-3-(3,4,5-trimethoxybenzoyl)-6-methoxybenzofuran]",selectivity between activated (tumour) and quiescent (normal) endothelial cells (in words),[2],show selectivity towards tumor endothelial cells (activated) over normal endothelial cells (quiescent)
same,tubulin polymerisation inhibition (in words),tubulin,potent tubulin polymerisation inhibitors
CO[C@H]1C[C@@H]2CC[C@@H](C)[C@@](O)(O2)C(=O)C(=O)N2CCCC[C@H]2C(=O)O[C@H]([C@H](C)C[C@@H]2CC[C@@H](OCCO)[C@H](OC)C2)CC(=O)[C@H](C)/C=C(\C)[C@@H](O)[C@@H](OC)C(=O)[C@H](C)C[C@H](C)/C=C/C=C/C=C/1C [everolimus],patients free of disease progression at 6 months,[3],20 patients
"COc1ccc(/C=C\c2cc(OC)c(OC)c(OC)c2)cc1O [Combretastatin A4, reference compound]",selectivity between activated (tumour) and quiescent (normal) endothelial cells (in words),[2],equally potent against quiescent and activated endothelial cells
